Measured values published in a melting point compilation (Tetko et al.; mined from patent text by program, amines drawn as free bases though some values may be those of a salt).

Row | melting point [°C] | Structure (SMILES)
1 | > 240 | COc1cc2c(cc1C(F)(F)F)N(C(=O)Nc1csc(-c3cnccn3)n1)CC2
2 | 206 to 207 | CC(C)(NC(=O)C1=C(C(=O)Nc2cc(OC3CCCC3)c(Cl)cc2F)CCCC1)c1ccccc1
3 | 207 | O=c1ccc(-c2ccc(O)cc2)cn1Cc1ccc(Cl)cc1F
4 | 94 to 96 | Cc1ccccc1C=CC(=O)C=Cc1ccccc1C
5 | 90 to 93 | Cc1cccc2c1CCC2NC(=S)NCCO (centres undefined)
6 | 239 to 240 | COC(=O)Oc1ccc(CNC=C2C(=O)NC(=O)c3ccc(Br)cc32)cc1OC(=O)OC
7 | 48 to 50 | CCCCCCCCCCCCCCC(=O)C(=O)NC(C=CC(=O)OC)CCCC (centres undefined)
8 | 182 to 184 | O=C(Nc1ccc(-n2nc(C(F)(F)F)cc2C2CC2)cc1)c1c(Cl)cncc1Cl
9 | 169 to 171 | Cc1cc(OCc2coc(/C=C/c3ccc(Cl)cc3)n2)ccc1CS(=O)CCc1ccnn1C (centres undefined)
10 | 34 to 35 | Cc1ccc2c(c1)C(=O)c1ccccc1CC2
11 | > 122 | COCc1nc2cc3c(cc2c(=O)[nH]1)C(Nc1ccc(C(=O)OC(C)(C)C)cc1)CC3 (racemic)
12 | 192 to 193 | COc1ccc(Cn2cc([N+](=O)[O-])c(C(N)=O)n2)cc1
13 | 166 to 168 | NC(=O)C1(O)c2ccccc2S(=O)(=O)N1Cc1ccc(Br)cc1 (centres undefined)
14 | 70 to 72 | CCCOC(=O)C(C)Oc1ccc(Oc2cnc3cc(Cl)ccc3n2)cc1F (centres undefined)
15 | 135 to 137 | CC1=C(C)CC2C(C1)C(=O)NS2=O (centres undefined)
16 | > 300 | CC(=O)OC1c2ccccc2-c2[nH]c(=O)c(=O)[nH]c21 (centres undefined)
17 | 76 to 81.5 | CC(=O)c1cccc(F)c1C(=O)O
18 | 168 to 170 | COCn1nccc1C(=O)c1cc2c(c(Cl)c1Cl)OC(C(=O)O)O2 (centres undefined)
19 | 138 to 140 | COc1ccc(OC)c(CCc2ccc3c(c2)C(=O)NCN3)c1
20 | 373 to 375 | Cc1cccc2nc(O)n(C3CCC(=O)NC3=O)c(=O)c12 (centres undefined)
21 | 280 to 282 | Cc1ccc(Sc2ccnc3sc(C(N)=O)cc23)cc1
22 | 104 to 107 | OC1c2ccccc2OC12CCCCCC2 (centres undefined)
23 | 129 | COc1c(C)c(=O)oc2cc(-c3ccc(C(C)C)cc3)ccc12
24 | 259 to 261 | CSCC#Cc1cc(F)c2ncc(C(=O)NCc3ccc(Cl)cc3)c(O)c2c1

Row | melting point [°C] | Structure (SMILES)
25 | 125 to 127 | CC(SCC(=O)O)c1ccc(-c2ccccc2F)cc1 (centres undefined)
26 | 99 to 101 | CC(C)Nc1cccnc1N1CCN(C(=O)c2ccc(C(=O)N(CCO)Cc3ccccc3)cc2)CC1
27 | 140 to 142 | O=C1C=C/C(=C/c2ccc(F)cc2)O1
28 | 153 to 155 | CCCN(CCC)CC1CCCN(CCNC(=O)N2c3ccccc3C(=O)Nc3cccnc32)C1 (centres undefined)
29 | 105 to 107 | CCOC(=O)c1ccc(COc2cccc(O)c2C=O)cc1
30 | 235 to 237 | CN(Cc1ccc(NC(=O)C2=Cc3cc(-c4ccc(Cl)c(Cl)c4)ccc3S(=O)(=O)CC2)cc1)C1CCOCC1
31 | 179 to 180 | CN1CCN(Cc2cc(-c3ccc4c(c3)CCO4)nn(Cc3ccc(F)cc3)c2=O)CC1
32 | 89 to 90 | COCCOc1ccc(CN)cc1O
33 | 159 to 161 | CC(C)(C)OC(=O)[C@@](C)(C#N)[C@H](c1ccccc1C(F)(F)F)c1cccc2ccccc12 (racemic)
34 | 245 to 247 | O=C1Nc2ccccc2N(C(=O)C2CC2)c2cscc21
35 | 70 to 71 | CCCCCCCCCCCCn1c2cc(Cl)ccc2c2ccc(Cl)cc21
36 | 116 to 118 | COc1ccc(OC)c(S(=O)(=O)NC(=O)C(C)Br)c1 (centres undefined)
37 | 273 to 274 | Cn1ncc(/C=C/C(=O)Nc2ccc(CC(=O)NN)cc2)c1-c1ccc(F)cc1
38 | 177 to 178 | CC(=S)NCC1CN(c2ccc(NC=O)c(F)c2)C(=O)O1 (centres undefined)
39 | 186 to 187 | COc1ccc(N2CCN(c3c(C)c(C)c4c(c3C)C(c3ccc(C)cn3)C(C)(C)O4)CC2)cc1 (centres undefined)
40 | 118 to 119 | CN1CCC(O)(c2ccccc2CO)CC1
41 | > 250 | CCOC(=O)c1nc2c(=O)[nH]c3cc(S(C)(=O)=O)ccc3n2c1C
42 | > 300 | O=c1[nH]c(=O)c2ccsc2[nH]1
43 | 104 to 106 | Cc1cc(OC2CCN(C(=O)OC(C)(C)C)CC2)ccc1[N+](=O)[O-]
44 | 217 to 219 | Cc1ccc(-c2noc3c(Cl)c(OCC(=O)O)ccc23)o1
45 | 113 | COc1cc(C(=O)CCCN2CCC(OC(=O)c3cc(Cl)c(N)c4c3OCCC4)CC2)cc(OC)c1OC
46 | 140 | COc1ccc(Cn2cc[nH]c2=S)cc1
47 | 130 to 134 | CC1(C)CC(=NO)c2cc(-c3ccccc3)ccc2O1
48 | 136 to 138 | CC(Oc1ccc(Cl)c(Cl)c1)c1nnc(N)s1 (centres undefined)

Row | melting point [°C] | Structure (SMILES)
49 | 168 to 170 | Cc1cc2c(c(C)c1S(=O)(=O)C[N+](=O)[O-])CCCS2(=O)=O
50 | 114 to 115 | COC(=O)[C@H](COC(C)(C)C)NC(=O)[C@@H](NC(=O)[C@H](Cc1ccccc1)NC(=O)[C@@H](NC(=O)OCc1ccccc1)[C@@H](C)OC(C)(C)C)[C@@H](C)OC(C)(C)C
51 | 178 | CCCCCCCCOc1ccc(-c2nc(-c3ccccc3)c(-c3ccccc3)[nH]2)cc1
52 | 120 to 122 | COC(=O)c1cc(C(C)O)c(C(F)(F)F)cc1NC(C)=O (centres undefined)
53 | > 300 | O=C(Nc1cccc(C(F)(F)F)c1)Nc1nccnc1C(=O)O
54 | 222 | O=C(N[C@H]1CC[C@H](CCN2CCN(c3nccc4c3CCO4)CC2)CC1)c1ccc(N2CCOCC2)nc1
55 | 215 | CCn1cc(C(=O)O)c(=O)c2cc(Cl)c(N3CCN(CCO)CC3)cc21
56 | 187 to 188 | CCc1cnc2c(NC(=O)c3c(Cl)cccc3Cl)cccc2c1CCBr
57 | 74 to 74.5 | CC(C)(C)C=NNC(=O)OCc1ccccc1
58 | 296 to 299 | N=C1c2nc[nH]c2N(Cc2ccc(Cl)cc2)C2=NCCN12
59 | 258 | CC(C)Cn1c(=O)n(C)c(=O)c2c(Br)c(C(=O)c3nc4ccccc4n3C)sc21
60 | 49 to 52 | CCOC(=O)C1=C(C)NC(C)=C(C(=O)OCC)C1c1ccccc1/C=C/C(=O)OC(CC(C)C)CC(C)C
61 | 105 to 107 | CC(=O)Nc1ncsc1-c1ccccc1
62 | 259 to 261 | CC1CCc2c(N3CCC(N(C)C)CC3)c(F)cc3c(=O)c(C(=O)O)cn1c23 (centres undefined)
63 | 148 to 150 | CNc1nc2c(cc1NC(=O)N1CCN(c3cc(OC)cc(OC)c3)CC1)CCC2
64 | 185 to 187 | Cn1c(SC(C(N)=O)c2ccccc2)nc2ccccc21 (centres undefined)
65 | 128 to 130 | Cc1nc2cccc(S(=O)(=O)n3c(COC(C)(C)C(=O)O)cc4cc(Cl)ccc43)c2s1
66 | 168 to 169 | CC(C#Cc1cc2ccccc2s1)N(O)C(N)=O (centres undefined)
67 | 110 to 112 | CC(Nc1ccccc1)=C(C#N)C(=O)Nc1ccccc1Cl
68 | 131 to 132 | COC(=O)c1ccc(Cn2nc(Cl)c3ccc([N+](=O)[O-])cc32)c(OC)c1
69 | 221 to 222 | CCOC(=O)C(=O)Nc1cc2c3c(cccc3c1[N+](=O)[O-])C(=O)OC2=O
70 | 138 to 139 | CCCCCCCN(CCC(C)(C)CCSc1nc(-c2ccccc2)c(-c2ccccc2)[nH]1)C(=O)Nc1ccc(F)cc1F
71 | 150 | CNn1c(C)nn(C(=O)NC(C)(C)C)c1=O
72 | 130 to 132 | CCOC(=O)C1=C(C)NC(=S)N(C(=O)c2ccc(OC)cc2)C1c1cccc([N+](=O)[O-])c1 (centres undefined)

Row | melting point [°C] | Structure (SMILES)
73 | 169 to 170 | Cc1cc(C)c(-n2ccc3c(Cl)nnc(Cl)c32)c(C)c1
74 | 193 to 194 | O=[N+]([O-])c1cccc(-c2ncc[nH]2)c1
75 | 252 | CC(C)n1cc(-c2nc(C(N)=O)c(N)nc2-c2ccccc2F)ccc1=O
76 | 75 to 78 | O=C1CNCCN1CCc1ccccc1
77 | 90 | Cn1c(=O)cc(CCc2cccc(Cl)c2)c2cc(C(N)(c3ccc(Cl)cc3)c3cccnc3)ccc21 (centres undefined)
78 | 213 to 214 | COc1cc(NC(=O)c2cc(C(C)C)c(C(C)C)s2)ccc1C(=O)O
79 | 198 to 200 | Cc1ccnc2c1N=C(n1ccnc1)c1cccnc1N2C1CC1
80 | 191 to 194 | CNC(=S)Nc1ccc2c(c1)C(=O)C1(CC1)O2
81 | 183 to 184 | COc1ccccc1C1=CC(=O)CCC1CC(=O)O (centres undefined)
82 | 280 | COc1c(C)cc(N2CCN(c3ccc(-n4c(C)n[nH]c4=O)cc3)CC2)cc1C
83 | 199 | COC(=O)NCC1=C(n2ccccc2=O)c2cc([N+](=O)[O-])ccc2OC1(C)C
84 | > 60 | CCCCc1nn(-c2cc([N+](=O)[O-])ccc2Cl)c(C(=O)OCC)c1Cc1ccc(-c2ccccc2S(=O)(=O)NC(=O)c2ccccc2Cl)cc1
85 | 219 to 221 | Cc1nc(-c2ccccc2)nc(-c2cccc([N+](=O)[O-])c2)c1CC#N
86 | 228 to 229 | COc1c(F)cc2c(O)c(C(=O)NCc3ccc(Cl)cc3)cnc2c1OC
87 | 266 to 268 | CCOC(=O)c1c[nH]c2nc(N3CCN(C)CC3)ncc2c1=O
88 | 142 to 143 | Cc1cc(N(C)CC(=O)N2CCN(Cc3ccc4c(c3)OCO4)CC2)ccc1Oc1ccc([N+](=O)[O-])cn1
89 | 108 to 109 | COC(=O)C1CCCc2c(-c3ccc(Cl)cc3)nsc2C1 (centres undefined)
90 | 185 to 186 | Cc1nnc(-c2ccc3occ(-c4cc(Cl)ccc4Cl)c3c2)o1
91 | 172 to 174 | C=CCN(CC=C)c1nc(NC(=O)OCC)n2oc(=O)nc2n1
92 | 194 to 196 | CCn1cnc(/C=C/c2cn(-c3ccccc3)nc2OCc2ccc(OCc3nc(-c4ccc(CC(=O)O)cc4)oc3C)c(OC)c2)c1
93 | 172 to 174 | Cc1ccc(N2C(=O)NC(=O)C23CCN(C)CC3)cc1

Row | Structure (SMILES) | melting point [°C]
94 | Cc1nnc2n1-c1ccc(NC(=O)NCCO)cc1C(c1ccccc1F)=NC2 | 228 to 230
95 | COCC1CCN(c2ccc(C#N)c3ccccc23)CC1 | 96 to 97
96 | CN1CCC(N2C(=O)CN=C(c3ccccc3F)c3cc(Cl)ccc32)CC1 | 145 to 146
97 | CN1C(=O)CC2(CNC(=O)C2)C1=O (centres undefined) | 201 to 204
98 | CC1(C)C2CC[C@@]1(N1CCOCC1)C(=O)C2 | 89.5 to 90.5
99 | Clc1c(Cl)c(Cl)c2[nH]c(NC3=NCCN3)nc2c1Cl | 310
